Target: PtmO8 (Streptomyces platensis, UniProt A0A0A0UVL0)
Experiment: steady-state enzyme kinetics
Format: biochemical

Km: 34.2 ± 3.6 µM
SMILES: NC(=O)c1ccc[n+]([C@@H]2O[C@H](COP(=O)([O-])OP(=O)(O)OC[C@H]3O[C@@H](n4cnc5c(N)ncnc54)[C@H](O)[C@@H]3O)[C@@H](O)[C@H]2O)c1 [NAD^+]
